# Assay results as given in patent publication US10603385B2, “Methods and compositions for templated assembly of nucleic acid specific heterocompounds” (priority 2013, dated 2020).
# Tested on: Caski cells
# Experiment: Azide-cyclooctyne templated assembly on HPV16 E6/E7 in transfected living cells, sandwich detection of ligated product
# Format: cell-based, human
# Conditions: Lipofectamine 2000 transfection, 24 hours after transfection
# Method: A set of corresponding reactants specific for the HPV16 E6/E7 gene were transfected into Caski cells to evaluate non-traceless nucleic acid templated assembly on tumor-associated targets in living cells. Sandwich enzymatic detection was used to confirm that templated assembly ligation product was preferentially formed in Caski cells rather than related cell lines lacking HPV16 E6/E7 sequence
# Caski and HeLa cell lines were cultured in DMEM medium with 10% heat inactivated fetal bovine serum. For each experimental condition, 1×10^6 cells were plated in a T-25 flask 24 hours before transfection. A flask from each cell line was transfected with both templated assembly reactants (experimental), and Caski flasks were also transfected with each one of the reactants in isolation as well (negative controls).
# Lipofectamine 2000 (Invitrogen) was used as the transfection reagent in accordance with the manufacturer's instructions Immediately prior to transfection, cell flasks were washed with 1×PBS and Optimem serum-free medium was added as the growth medium. […] Separately, 11 uL of Lipofectamine 2000 was incubated with 275 uL of Optimem serum-free medium for 15 minutes. […] 500 uL of the Oligo-3.1-Lipofectamine transfection solution was then dispensed to the experimental flask. […]
substance,measurement,value
5′-FAM-CCAGAUGUCUUUGCU-Azide-3′ [Oligo-3.1],Corrected Absorbance A450,0.003
